Usually CC50 stands for the concentration giving 50% cytotoxicity. By EC50 is commonly meant the midpoint of the concentration-response curve.

Results on 23 molecules are retold here after patent publication US20230091047A1 (priority 2019, published 2023).

Like-named read-outs stand apart in the source and are kept apart here.

A short description of one data set: in vitro. The class given is cell-based. As to conditions: human, HepG2 or HepG2.117 cells, ATPlite, mean value. The procedure, abridged:
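Luminescent ATP quantitation served as the viability endpoint following a 3- or 4-day incubation with test compounds.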
Background: ATP-based viability assays read luminescence as a measure of living cells.

Data set [1] deals with HBV (HepG2.117 cell line, inducibly HBV producing). Kind of data set: Anti-HBV activity: intracellular HBV DNA by real-time PCR in HepG2.117 cells after 3 days of treatment. The data set is classed as cell-based, hepatitis B virus. In short, it runs like this: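 First, HBV replication is induced in HepG2.117 cells by doxycycline absence. Next, serially diluted compound is added for 3 days. Finally, intracellular HBV DNA is quantified by HBV-specific real-time PCR.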
A general note: Real-time PCR tracks product formation cycle by cycle.

Setting [2] is: 3-days incubation (not marked with *).
Setting [3] is: Hepatitis B virus, HepG2.117, 72 h, HepG2.117 cells, intracellular HBV DNA by real-time PCR, 3 days of treatment, mean value; read-out: EC50 (μM, mean value).
Setting [4] is: 3-days incubation (unmarked values).
[5] abbreviates: Hepatitis B virus, HepG2.117, 72 h, HepG2.117 cells, 3 days of treatment, intracellular HBV DNA by real-time PCR; mean value; read-out: EC50 (μM, mean value).

`CNC(=O)c1ccc(-n2c(N[C@H](C)c3cc(C)no3)nc3c(c2=O)C[C@@H](C)N(C(=O)c2ccc(Cl)c(Cl)c2)C3)cc1` (single isomer, unassigned) [Compound C433a] showed a CC50 at 3 days in “in vitro” (setting [2]) of over 50 µM. Also, the EC50 in data set [1] (setting [3]) amounted to 1.89 µM.
Molecule `CNC(=O)c1cc(-n2c(N[C@@H](C)c3ccc(OC(F)(F)F)cc3)nc3c(c2=O)C[C@@H](C)N(C(=O)c2ccc(Cl)c(Cl)c2)C3)nn1C` [Compound C622] returned a CC50 at 3 days in “in vitro” (setting [2]) of over 50 µM. In addition, the half-maximal effective concentration (EC50) in data set [1] (setting [3]) was 0.07 µM.
`COc1ccc(CNc2nc3c(c(=O)n2-c2ccnn2C)CCN(C(=O)c2ccc(Cl)c(Cl)c2)C3)cc1` [Compound C108, 7-(3,4-dichlorobenzoyl)-2-{[(4-methoxyphenyl)methyl]amino}-3-(1-methyl-1H-pyrazol-5-yl)-5,6,7,8-tetrahydropyrido[3,4-d]pyrimidin-4(3H)-one]: the CC50 at 3 days in the data set “in vitro” (setting [4]) is 26.5 µM. Besides, the concentration giving a half-maximal response (EC50) in data set [1] (setting [5]) worked out at 1.87 µM.
The like results for `CNC(=O)c1ccc(-n2c(NC(C)C)nc3c(c2=O)CCN(C(=O)c2ccc(Cl)c(Cl)c2)C3)cc1F` [Compound C219, 4-[7-(3,4-dichlorobenzoyl)-4-oxo-2-[(propan-2-yl)amino]-5,6,7,8-tetrahydropyrido[3,4-d]pyrimidin-3(4H)-yl]-2-fluoro-N-methylbenzamide] were, in that order, over 50 µM and 0.28 µM.
Consider `CC(C)Nc1nc2c(c(=O)n1-c1ccc(S(C)(=O)=O)cc1)CCN(C(=O)c1ccc(Cl)c(C(F)(F)F)c1)C2` [Compound C191, 7-[4-chloro-3-(trifluoromethyl)benzoyl]-3-[4-(methanesulfonyl)phenyl]-2-[(propan-2-yl)amino]-5,6,7,8-tetrahydropyrido[3,4-d]pyrimidin-4(3H)-one], for which the half-maximal cytotoxic concentration (CC50) at 3 days in the data set “in vitro” (setting [4]) was over 50 µM. In addition, the EC50 in data set [1] (setting [5]) amounted to 0.4 µM.
For `CNC(=O)c1ccc(-n2c(NC(C)C)nc3c(c2=O)C[C@@H](C)N(C(=O)c2ccc(Cl)c(OC(F)F)c2)C3)cc1` [Compound C679], the CC50 at 3 days in “in vitro” (setting [2]) is over 50 µM. The 50% effective concentration (EC50) in data set [1] (setting [3]) came to 0.21 µM.
Taken in the same sequence, the figures for `CNC(=O)c1ccc(-n2c(NC(C)C)nc3c(c2=O)C[C@@H](C)N(C(=O)c2nn(C)c4ccccc24)C3)cc1` [Compound C477] were over 50 µM and 10.2 µM.
Turning to `COc1ccccc1-n1c(N2CCCC2)nc2c(c1=O)CCN(C(=O)c1ccc(Cl)c(Cl)c1)C2` [Compound C39, 7-(3,4-dichlorobenzoyl)-3-(2-methoxyphenyl)-2-(pyrrolidin-1-yl)-5,6,7,8-tetrahydropyrido[3,4-d]pyrimidin-4(3H)-one], in “in vitro” (setting [4]), the 50% cytotoxic concentration (CC50) at 3 days was over 50 µM. Also, in data set [1] (setting [5]), the EC50 was determined as 9.21 µM.
Taken in the same sequence, the figures for `CC(C)Nc1nc2c(c(=O)n1-c1ccc(S(C)(=O)=O)cc1)CCN(C(=O)c1ccc3ncn(C)c3c1)C2` [Compound C363] were over 50 µM and over 50 µM.
`CNC(=O)c1cc(-n2c(N[C@@H](C)c3ccc(C(F)(F)F)cc3)nc3c(c2=O)C[C@@H](C)N(C(=O)c2ccc(Cl)c(Cl)c2)C3)[nH]n1` [Compound C630] yielded a CC50 at 3 days in “in vitro” (setting [2]) of 20.7 µM. For the same molecule, the EC50 in data set [1] (setting [3]) amounted to 0.11 µM.
The like results for `CNC(=O)c1ccc(-n2c(NCc3cccc(-n4cncn4)c3)nc3c(c2=O)C[C@@H](C)N(C(=O)c2ccc(Cl)c(Cl)c2)C3)cc1` [Compound C543] were, in that order, over 50 µM and 7.02 µM.
Taken in the same sequence, the figures for `CNC(=O)c1ccc(-n2c(N[C@@H](C)c3ccc(F)c(F)c3)nc3c(c2=O)C[C@@H](C)N(C(=O)c2ccc(Cl)c(Cl)c2)C3)cc1` (single isomer, unassigned) [Compound C417b] were 7.3 µM and 0.06 µM.
In turn, `COc1ccc(CNc2nc3c(c(=O)n2C2COC2)CCN(C(=O)c2ccc(Cl)c(Cl)c2)C3)cc1` [Compound C58, 7-(3,4-dichlorobenzoyl)-2-{[(4-methoxyphenyl)methyl]amino}-3-(oxetan-3-yl)-5,6,7,8-tetrahydropyrido[3,4-d]pyrimidin-4(3H)-one] yielded a 50% cytotoxic concentration (CC50) at 3 days in the data set “in vitro” (setting [4]) of 42.8 µM. The concentration giving a half-maximal response (EC50) in data set [1] (setting [5]) came to 2.56 µM.
In the data set “in vitro” (setting [2]), `CNC(=O)c1ccc(-n2c(NC3COC(C)(C)C3)nc3c(c2=O)C[C@@H](C)N(C(=O)c2ccc(Cl)c(Cl)c2)C3)cc1` (stereo partly shown) [Compound C480] gave a CC50 at 3 days of over 50 µM. Also, in data set [1] (setting [3]), the EC50 came out at 10.3 µM.
The like results for `CNC(=O)c1ccc(-n2c(N[C@@H](C)c3cc(C)no3)nc3c(c2=O)C[C@@H](C)N(C(=O)c2ccc(Cl)c(Cl)c2)C3)cc1` (single isomer, unassigned) [Compound C433b] were, in that order, over 50 µM and 0.73 µM.
Molecule `CNC(=O)c1ccc(-n2c(N[C@H](C)c3ccc(OC)c(F)c3)nc3c(c2=O)C[C@@H](C)N(C(=O)c2ccc(Cl)c(Cl)c2)C3)cc1` (single isomer, unassigned) [Compound C416a] yielded a cytotoxic concentration (CC50) at 3 days in “in vitro” (setting [2]) of over 50 µM. Moreover, the EC50 in data set [1] (setting [3]) came out at 0.96 µM.
In the case of `CNC(=O)c1ccc(-n2c(NC(C)C)nc3c(c2=O)C[C@@H](C)N(C(=O)c2cc4c(Br)c(C)ccc4[nH]2)C3)cc1` [Compound C471], the CC50 at 3 days in “in vitro” (setting [2]) is 21.6 µM. Moreover, in data set [1] (setting [3]), the concentration for a half-maximal effect (EC50) is 0.25 µM.
Taken in the same sequence, the figures for `CNC(=O)c1ccc(-n2c(N[C@@H](C)C3CC3)nc3c(c2=O)C[C@@H](C)N(C(=O)c2ccc(Cl)c(Cl)c2)C3)c(Cl)c1` (single isomer, unassigned) [Compound C387a] were over 50 µM and 0.05 µM.
`COc1ccc(CNc2nc3c(c(=O)n2-c2ccncc2)CCN(C(=O)c2ccc(Cl)c(Cl)c2)C3)cc1` [Compound C123, 7-(3,4-dichlorobenzoyl)-2-{[(4-methoxyphenyl)methyl]amino}-3-(pyridin-4-yl)-5,6,7,8-tetrahydropyrido[3,4-d]pyrimidin-4(3H)-one] gave a CC50 at 3 days in “in vitro” (setting [4]) of 24.4 µM. The half-maximal effective concentration (EC50) in data set [1] (setting [5]) is 1.23 µM.
The molecule `CNC(=O)c1cc(-n2c(NC(C)C)nc3c(c2=O)C[C@@H](C)N(C(=O)c2ccc(Cl)c(Cl)c2)C3)nn1C` [Compound C292, 3-[(6R)-7-(3,4-dichlorobenzoyl)-6-methyl-4-oxo-2-[(propan-2-yl)amino]-5,6,7,8-tetrahydropyrido[3,4-d]pyrimidin-3(4H)-yl]-N,1-dimethyl-1H-pyrazole-5-carboxamide] showed a half-maximal cytotoxic concentration (CC50) at 3 days in the data set “in vitro” (setting [4]) of over 50 µM. In data set [1] (setting [5]), the EC50 came out at 0.04 µM.
Regarding `CNC(=O)c1ccc(-n2c(N[C@@H](C)c3cccnc3OC)nc3c(c2=O)C[C@@H](C)N(C(=O)c2ccc(Cl)c(Cl)c2)C3)cc1` (relative stereo) [Compound C286, 4-[(rt)-7-(3,4-dichlorobenzoyl)-2-{[(1*S)-1-(2-methoxypyridin-3-yl)ethyl]amino}-6-methyl-4-oxo-5,6,7,8-tetrahydropyrido[3,4-d]pyrimidin-3(4H)-yl]-N-methylbenzamide], the CC50 at 3 days in the data set “in vitro” (setting [4]) came out at 29 µM. Also, in data set [1] (setting [5]), the EC50 came to 0.12 µM.
As for `CNC(=O)c1ccc(-n2c(N[C@H](C)c3ccccc3OC)nc3c(c2=O)C[C@@H](C)N(C(=O)c2ccc(Cl)c(Cl)c2)C3)cc1` (single isomer, unassigned) [Compound C402a], the midpoint of cytotoxicity in “in vitro” (setting [2]), the CC50 at 3 days, lay at 13.8 µM. Also, in data set [1] (setting [3]), the EC50 was 0.32 µM.
Consider `COc1ccc(CNc2nc3c(c(=O)n2-c2ccccc2OC)CCN(C(=O)c2cc4ccccc4[nH]2)C3)cc1` [Compound C2, 7-(1H-indole-2-carbonyl)-2-((4-methoxybenzyl)amino)-3-(2-methoxyphenyl)-5,6,7,8-tetrahydropyrido[3,4-d]pyrimidin-4(3H)-one], for which the CC50 at 4 days in “in vitro” (4-days incubation (values marked with *)) is over 50 µM. The EC50 in data set [1] (setting [5]) worked out at 1.75 µM.
